The values below are quoted from earlier work in patent publication US5110799A, “Antiherpetic agents” (Merck & Co., Inc., priority 1989, dated 1992).

In the series the target is ribonucleotide reductase enzyme of herpes simplex virus (Human herpesvirus 1, UniProt P08543). The conditions noted are these: in vitro; Dutia et al., Cohen et al., U.S. Pat. No. 4,795,740.
Chain of ribonucleotide reductase enzyme of herpes simplex virus (P08543 whole entry): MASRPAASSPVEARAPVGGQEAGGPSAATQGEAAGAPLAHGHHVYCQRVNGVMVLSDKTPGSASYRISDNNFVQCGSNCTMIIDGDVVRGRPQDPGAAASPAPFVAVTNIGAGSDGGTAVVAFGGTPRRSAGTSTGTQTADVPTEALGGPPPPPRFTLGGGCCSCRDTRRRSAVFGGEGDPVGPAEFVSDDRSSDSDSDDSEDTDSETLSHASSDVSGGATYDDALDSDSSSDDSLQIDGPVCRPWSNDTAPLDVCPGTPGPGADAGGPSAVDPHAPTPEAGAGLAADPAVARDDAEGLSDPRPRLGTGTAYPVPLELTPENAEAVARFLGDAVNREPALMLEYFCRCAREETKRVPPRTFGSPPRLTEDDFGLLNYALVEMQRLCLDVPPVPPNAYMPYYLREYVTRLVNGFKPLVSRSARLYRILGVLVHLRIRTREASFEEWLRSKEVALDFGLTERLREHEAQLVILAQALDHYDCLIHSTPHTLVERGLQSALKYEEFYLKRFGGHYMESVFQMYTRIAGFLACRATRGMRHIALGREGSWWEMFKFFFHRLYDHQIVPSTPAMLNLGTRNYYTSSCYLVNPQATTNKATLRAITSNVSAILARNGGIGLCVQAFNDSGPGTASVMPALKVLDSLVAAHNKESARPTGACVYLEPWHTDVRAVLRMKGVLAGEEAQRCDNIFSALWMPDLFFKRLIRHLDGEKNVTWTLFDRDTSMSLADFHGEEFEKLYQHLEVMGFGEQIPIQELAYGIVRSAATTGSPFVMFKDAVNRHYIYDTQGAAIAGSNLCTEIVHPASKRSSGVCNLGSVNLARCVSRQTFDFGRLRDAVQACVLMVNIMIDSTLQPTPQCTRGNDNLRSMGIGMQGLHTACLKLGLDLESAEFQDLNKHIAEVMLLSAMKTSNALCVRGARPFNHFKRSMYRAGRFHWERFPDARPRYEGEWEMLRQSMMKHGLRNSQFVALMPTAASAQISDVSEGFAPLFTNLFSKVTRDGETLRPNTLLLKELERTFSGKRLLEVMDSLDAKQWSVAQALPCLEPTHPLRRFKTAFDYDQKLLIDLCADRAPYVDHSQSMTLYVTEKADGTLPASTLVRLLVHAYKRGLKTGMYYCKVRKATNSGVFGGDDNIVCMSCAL

Tyr gly Ala Val Val Asn Asp Leu: the “inhibition of the activity of HSV ribonucleotide reductase” value is recorded as “inhibited in vitro the activity of this enzyme”.

Take Tyr Ala Gly Ala Val Val Asn Asp Leu: the “inhibition of the activity of HSV ribonucleotide reductase” value is listed as “inhibited in vitro the activity of this enzyme”.
